Reference: US20210177823A1, “NEUROMODULATING COMPOSITIONS AND RELATED THERAPEUTIC METHODS FOR THE TREATMENT OF CANCER” (Flagship Pioneering Innovations V, Inc., priority 2016, published 2021)
“Also recorded” adds a separate entry of the source.

Key:
[1] = tested on: NCI-H82 small cell lung cancer cells; assay: Cancer cell growth in low-serum spheroid culture, Cell Titer Glo readout; type: cell-based; details: at low micromolar concentration; tested 10 nM-10 uM
Experimental: (§1) Cancer cell lines were grown in appropriate cell culture medium. On day 0, cells were plated in black organogenix nanocult 96-well plates with low-bind honeycomb pattern. Cells were plated in a low serum medium to increase the dynamic range observable for growth promotion. Within three days spheroids were visible. On day 1 post plating, compounds were added at a range of doses to the cells, between mid-nanomolar and low micromolar, spanning at least a 100× dose range. On day 4 post plating, number of cells are quantified by staining with Cell Titer Glo and reading on a plate reader. We observed that adenosine at 10-200 μM enhances the growth of multiple pancreatic cancer cell lines (CFPAC, PANC-1, PL45, ASPC-1, CAPAN-1, CAPAN-2) by at least 10% increased signal over 24 hours than untreated cells. Upon follow-up of the adenosine pathway, we performed a similar assay with chemical antagonists of adenosine receptors at a range of concentrations between 10 nM-10 uM.

[2] = tested on: BXPC3 pancreatic cancer cells; assay: as above; type: cell-based; details: at low micromolar concentration; tested 10 nM-10 uM
Experimental: as §1

[3] = tested on: Glioblastoma lines A172, LN-18, T98G, LN-229, U87 MG, and U118 MG; assay: Colony formation assay in glioblastoma cell lines (Cyto60 fluorescence); type: cell-based; details: 1 μM to 20 μM, day 9, LN-229, U87, U118
Experimental: Glioblastoma lines A172, LN-18, T98G, LN-229, U87 MG, and U118 MG were passaged in culture per manufacturer's recommendations.
On day 0 of the experiment, cells were plated in 24 well plates at a density of 500 cells per well in triplicate. On day 1, DRD2 antagonists haloperidol and L741,626 were added to the wells at a range of concentrations between 1 μM and 20 μM. Media was changed every three days. On day 9 of the experiment, cells were fixed with formalin and stained with Cyto60 (a nucleic acid stain). Fluorescence was read on a Licor-Odyssey imager to assess the number of viable cells in the assay.

[4] = tested on: patient-derived xenograft tumors from patient 5197; assay: SCLC PDX subcutaneous tumor with implanted microdose drug delivery device, immunohistochemistry (CC3, phospho-AKT); type: in vivo, nude mice; details: intratumoral device reservoir, 24 hours in situ; patient 5197 PDX
Experimental: (§2) Small cell lung cancer cells derived from a human donor (CrownBio, San Diego Calif.) were injected subcutaneously into the flanks of nude mice. Tumors were grown to a size of approximately 6-10 mm before device implantation.
(§3) Microdose drug delivery devices were manufactured as described in Jonas et al., Sci. Transl. Med. 7, 284ra57 (2015). Briefly, cylindrical, micro-scale devices with 0.82 (diameter)×4 mm (length) were manufactured from medical-grade Delrin acetyl resin blocks (DuPont) by micromachining (CNC Micromachining Center, Cameron). Circular reservoirs were shaped on the outer surface of devices in dimensions of 230 um (diameter)×250 um (depth). Drug-polymer mixtures were packed into device reservoirs using a tapered, metal needle (Electron Microscopy Sciences) until the reservoirs were completely filled.
Devices were implanted directly into the mouse tumor using a 19-gauge spinal biopsy needle (Angiotech) and a retractable needle obturator to push the device into the tissue. Devices containing the drugs remained in situ for 24 hours.
The flank tumor was excised and the tissue containing the device was fixed for 24 hours in 10% formalin and perfused with paraffin. This specimen was sectioned using a standard microtome and tissue sections were collected from each reservoir. Sections were antibody-stained by standard immunohistochemistry using antibodies against cleaved-caspase-3 (CC3), KI-67, and phospho-AKT (Cell Signaling) and scored using an ImageJ image (v1.48) analysis algorithm in a blinded manner.

[5] = tested on: patient-derived xenograft tumors from patient 5217; assay: SCLC PDX subcutaneous tumor with implanted microdose drug delivery device, immunohistochemistry; type: in vivo, nude mice; details: patient 5217 PDX, ~10× lower DRD2 mRNA than patient 5197; device 24 hours in situ
Experimental: as §2, §3
Devices were implanted directly into the mouse tumor using a 19-gauge spinal biopsy needle (Angiotech) and a retractable needle obturator to push the device into the tissue. […]
The flank tumor was excised and the tissue containing the device was fixed for 24 hours in 10% formalin and perfused with paraffin. […] Sections were antibody-stained by standard immunohistochemistry using antibodies against cleaved-caspase-3 (CC3), KI-67, and phospho-AKT (Cell Signaling) and scored using an ImageJ image (v1.48) analysis algorithm in a blinded manner.

[6] = tested on: pancreatic cancer cell lines (CFPAC, PANC-1, PL45, ASPC-1, CAPAN-1, CAPAN-2); assay: Cancer cell growth in low-serum spheroid culture, Cell Titer Glo readout; type: cell-based; details: adenosine at 10-200 μM, over 24 hours
MIAPaCa2 Fluc cells = assay: Orthotopic MIAPACA2 pancreatic cancer model, tumor weight at end of study; type: in vivo, Nude mice (Nu/Nu); details: daily IP, three weeks after initiation of dosing; for reduction in tumor weight at the end of study: compared to vehicle-treated group
Experimental: MIAPaCa2 Fluc cells were grown in DMEM tissue culture media with 10% fetal calf serum, 2.5% Horse Serum, 1% penicillin/streptomycin and Puromycin (20 ug/mL). On the day of implantation, cells were washed in PBS, trypsinized and resuspended at a density of 2×10^6 cells/ml in a Matrigel solution prior to being implanted into the pancreas a volume of 0.05 mL using a 25 G needle. Nude mice (Nu/Nu) were anesthetized and the pancreas exposed via peritoneal incision and physical displacement of the spleen. Cells were injected into the pancreas in a total volume of 0.05 mL and the surgical wound closed with VetBond. Bioluminescence was assessed by administration of D-luciferin and imaging on an IVIS system. Mice with leakage of bioluminescent signal immediately after surgery were removed from study. Mice were randomized into groups of equal mean bioluminescence approximately 14 days post-implant. […] One group of mice received haloperidol alone, a second group received gemcitabine chemotherapy (the standard of care for human pancreatic cancer treatment), and a third group received a combination of haloperidol and gemcitabine. For groups also receiving gemcitabine, gemcitabine was dosed 50 mg/kg IP daily. Tumor growth was determined bi-weekly with bioluminescent measurement. The study was terminated three weeks after initiation of drug dosing. At termination, mice were sacrificed and pancreas collected and weighed.

## CCCn1c(=O)c2[nH]c(C34CC5CC(CC3C5)C4)nc2n(CCC)c1=O [KW3902]
[1]
  inhibition of growth of NCI-H82 small cell lung cancer cells: inhibited the growth
[2]
  inhibition of growth of BXPC3 pancreatic cancer cells: inhibited the growth

## OC1(c2ccc(Cl)cc2)CCN(Cc2c[nH]c3ccccc23)CC1 [L-741,626]
[3]
  number of glioblastoma cells growing in culture compared to DMSO control: reduce the number of glioblastoma cells
[4]
  cell killing as measured by CC3 positive tissue: dose-dependent cell killing
  phospho-AKT staining gradient (dopamine receptor signaling): negative gradient
[5]
  impact of treatment on tumor: at all not impacted; also recorded: not impacted at all

## O=C(Cc1ccccc1)Nc1nc2ccc(Cl)cc2c2nc(-c3ccco3)nn12 [MRS-1220]
[1]
  inhibition of growth of NCI-H82 small cell lung cancer cells: inhibited the growth

## Nc1ncnc2c1ncn2[C@@H]1O[C@H](CO)[C@@H](O)[C@H]1O [adenosine]
[6]
  enhancement of growth, increased signal than untreated cells: at least 10%

## N.N.[Cl][Pt][Cl] [cisplatin]
[4]
  cell killing as measured by CC3 positive tissue: minimal cell killing

## Nc1ccn([C@@H]2O[C@H](CO)[C@@H](O)C2(F)F)c(=O)n1 [gemcitabine]
MIAPaCa2 Fluc cells
  reduction in tumor weight at the end of study: equivalent

## O=C(CCCN1CCC(O)(c2ccc(Cl)cc2)CC1)c1ccc(F)cc1 [haloperidol]
[3]
  number of glioblastoma cells growing in culture compared to DMSO control: reduce the number of glioblastoma cells
MIAPaCa2 Fluc cells
  reduction in tumor weight at the end of study: ~50%
MIAPaCa2 Fluc cells; vehicle 300 mg
  tumor weight at the end of study: 150 mg
